Test results from US20230356105A1, “TETRAAZADODECANE BASED CHELATING AGENTS FOR SEPARATION OF RARE EARTH ELEMENTS AND METHOD THEREFOR” (Ustav Organicke Chemie a Biochemie AV CR V.V.I., priority 2020, published 2023).
“And” between values parts separate entries of the source, which are not always exact repeats. Equal values may be shown once. Marks after values point to notes of the source that are not given here.

Tests used:
Format in all cases: physicochemical
[1] = Separation of Eu/Yb mixture by precipitation using L5 (Example 15); settings: for Precipitate concentration [mM] Eu / Precipitate concentration [mM] Yb: dissolved to 150 μL
Procedure: Stock solutions were pipetted into round-bottom 2 mL Eppendorf tubes as follows: • 1. 15 μL 100 mM aqueous solution of EuCl3 • 2. 10 μL 100 mM aqueous solution of YbCl3 • 3. 30 μL 100 mM aqueous solution of compound L5. • 4. 90 μL 0.5 M MOPS buffer pH=7.
Three identical reaction mixtures were prepared. Each tube was equipped with one PTFE-coated magnetic stir bar and sealed, and the mixture was stirred on a magnetic stirrer for 24 hours at room temperature. The tubes were then centrifuged and the supernatants were carefully pipetted out and transferred to a new set of tubes. To the precipitate was added 100 μL 1 M HCl (reaching pH=0) and the mixture was stirred until full dissolution (overnight at room temperature, pH=0). The overall volume of the solution was adjusted to 150 μL volume by addition of water. The supernatants were treated with 1 M HCl for a total volume of 150 μL and pH=0.5. Concentrations of Eu and Yb in the supernatants and in the re-dissolved precipitates were determined by ICP-OES. The resulting absolute concentrations of both metals in the supernatants and precipitates, as well as calculated values of the separation factor Yb/Eu according to formula from Example 11), are summarized in Table 9. […] The average separation factor value was 152.

[2] = Separation of Nd/Pr/Tb/Dy mixture by precipitation using L5 and acetate (Example 22); settings: for solution after 20 hrs / solution after 2 days: acetate buffer pH=5.8; for solution after 20 hrs composition / solution after 2 days composition: percent molar
Procedure: A reaction mixture was prepared analogously to Example 21), with the differences being the use of sodium acetate buffer pH=5.8 in place of MOPS pH=7, an additional aliquot taken for analysis after 2 days, and the lack of ICP-OES analysis on the precipitated portions of the solution — that is, only the supernatants were analysed. Otherwise, the reaction was run analogously to Example 21). The percent molar composition of each is also provided, showing the improved selectivity in precipitation under these conditions, compared to Example 21).

[3] = Separation of Nd/Pr/Tb/Dy mixture by precipitation using L5 and α-HIBA (Example 23)
Procedure: These aqueous reaction mixtures, each prepared to a total volume of 1.5 mL with the addition of water as necessary, were mixed by the use of a PTFE-coated stir bar on a magnetic stirrer. The cuvettes were sealed with transparent tape to prevent evaporation overnight. […] The supernatants were carefully pipetted out and transferred to a new set of tubes. […] The absolute concentration of the four metals in each supernatant and precipitate was determined by ICP-OES.

[4] = Separation of Eu/Yb mixture by precipitation from water/acetonitrile solutions using L5 (Example 17); settings: for Precipitate concentration [mM] Eu / Precipitate concentration [mM] Yb: dissolved to 100 μL
Procedure: 3 reaction mixtures, differing in acetonitrile content (group A=10%, group B=20%, group C=50%) were prepared in plastic round-bottom 2 mL Eppendorf tubes, each in duplicate. For group A, the stock solutions were pipetted as follows: 5 μL 100 mM aqueous solution of EuCl3; 5 μL 100 mM aqueous solution YbC13; 10 μL 100 mM aqueous solution of compound L5; 20 μL 3 M MOPS buffer pH=7; 50 μL water; 10 μL acetonitrile.
For group B, the stock solutions were pipetted as follows: 5 μL 100 mM aqueous solution of EuCl3; 5 μL 100 mM aqueous solution YbC13; 10 μL 100 mM aqueous solution of compound L5; 20 μL 3 M MOPS buffer pH=7; 40 μL water; 20 μL acetonitrile. For group C, the stock solutions were pipetted as follows: 5 μL 100 mM aqueous solution of EuCl3; 5 μL 100 mM aqueous solution YbC13; 10 μL 100 mM aqueous solution of compound L5; 20 μL 3 M MOPS buffer pH=7; 10 μL water; 50 μL acetonitrile.
Each tube was equipped with one PTFE-coated magnetic stir bar and sealed, and the mixture was stirred on a magnetic stirrer for 24 hours at room temperature. The tubes were then centrifuged and the supernatants were carefully pipetted out and transferred to a new set of tubes. To the precipitate was added 100 μL 1 M HCl and mixture was stirred until full dissolution (overnight at room temperature, pH=0). Concentrations of Eu and Yb in the supernatants and in the re-dissolved precipitates were determined by ICP-OES. The resulting absolute concentrations of both metals in the supernatants and precipitates, as well as calculated values of the separation factor Yb/Eu according to the formula from Example 11), are summarized in Table 11.

[5] = L5 + α-HIBA, MOPS pH=7, 18 hours, individual samples A, B, C
[6] = L5 + α-HIBA, MOPS pH=7, 18 hours, precipitate dissolved to 500 μL, individual samples A, B, C
[7] = group A, 10% acetonitrile, mean of duplicates
[8] = group B, 20% acetonitrile, mean of duplicates
[9] = group C, 50% acetonitrile, mean of duplicates

Which “Supernatant concentration [mM] Eu” value [1] does the source give for O=C(O)CN1CCN(CC(=O)O)CCN(Cc2cccc3ccccc23)CCN(CC(=O)O)CC1 [L5, 2,2′,2″-(10-(naphthalene-1-ylmethyl)-1,4,7,10-tetraazacyklododekane-1,4,7-triyl)triacetic acid] here?
The value was 0.16 mM and 0.22 mM.

What about the “Supernatant concentration [mM] Yb” value [1] of the same molecule?
Its value is 3.69 mM and 3.85 mM and 3.97 mM.

What about the “Precipitate concentration [mM] Eu” value [1] of the same molecule?
The value was 4.66 mM and 4.57 mM and 4.50 mM.

What about the “Precipitate concentration [mM] Yb” value [1] of the same molecule?
The value was 0.63 mM and 0.62 mM and 0.58 mM.

What about the “Precipitate concentration [mM] Eu” value ([1]; mean) of the same molecule?
Its value is 4.58 mM.

And the “Precipitate concentration [mM] Yb” value ([1]; mean)?
The value was 0.61 mM.

And the “Supernatant concentration [mM] Eu” value ([1]; mean)?
The value was 0.19 mM.

And the “Supernatant concentration [mM] Yb” value ([1]; mean)?
The value was 3.84 mM.

And the “solution after 20 hrs” value ([2]; Ln=Dy)?
Its value is 5.41 mM.

What about the “solution after 2 days” value ([2]; Ln=Dy) of the same molecule?
The value was 5.00 mM.

What about the “solution after 20 hrs composition” value ([2]; Ln=Dy) of the same molecule?
Its value is 16.4%.

And the “solution after 2 days composition” value ([2]; Ln=Dy)?
The value was 28.1%.

What about the “solution after 20 hrs” value ([2]; Ln=Nd) of the same molecule?
Its value is 17.01 mM.

And the “solution after 2 days” value ([2]; Ln=Nd)?
The value was 6.42 mM.

What about the “solution after 20 hrs composition” value ([2]; Ln=Nd) of the same molecule?
The value was 51.5%.

What about the “solution after 2 days composition” value ([2]; Ln=Nd) of the same molecule?
The value was 36.1%.

And the “solution after 20 hrs” value ([2]; Ln=Pr)?
The value was 4.78 mM.

And the “solution after 2 days” value ([2]; Ln=Pr)?
Its value is 1.57 mM.

What about the “solution after 20 hrs composition” value ([2]; Ln=Pr) of the same molecule?
The value was 14.5%.

What about the “solution after 2 days composition” value ([2]; Ln=Pr) of the same molecule?
The value was 8.8%.

What about the “solution after 20 hrs” value ([2]; Ln=Tb) of the same molecule?
The value was 5.84 mM.

What about the “solution after 2 days” value ([2]; Ln=Tb) of the same molecule?
Its value is 4.77 mM.

What about the “solution after 20 hrs composition” value ([2]; Ln=Tb) of the same molecule?
The value was 17.7%.

And the “solution after 2 days composition” value ([2]; Ln=Tb)?
The value was 26.9%.

What about the “supernatant concentration Dy” value [3, 5] of the same molecule?
The value was 1.73 and 1.38 and 1.65.

And the “supernatant concentration Nd” value [3, 5]?
The value was 1.31 and 0.78 and 0.98.

And the “supernatant concentration Pr” value [3, 5]?
Its value is 0.32 and 0.20 and 0.24.

And the “supernatant concentration Tb” value [3, 5]?
Its value is 1.22 and 1.00 and 1.17.

What about the “precipitate concentration Dy” value [3, 6] of the same molecule?
Its value is 1.04 and 0.95 and 1.05.

What about the “precipitate concentration Nd” value [3, 6] of the same molecule?
The value was 8.60 and 7.83 and 8.96.

And the “precipitate concentration Pr” value [3, 6]?
Its value is 2.30 and 2.08 and 2.40.

What about the precipitate concentration Tb [3, 6] of the same molecule?
The precipitate concentration Tb was 1.25 mM (2×) and 1.11 mM.

What about the “precipitate concentration Dy, average” value ([3]; average of samples A-C) of the same molecule?
Its value is 1.01.

And the “precipitate concentration Nd, average” value ([3]; average of samples A-C)?
Its value is 8.46.

And the “precipitate concentration Pr, average” value ([3]; average of samples A-C)?
The value was 2.26.

What about the “precipitate concentration Tb, average” value ([3]; average of samples A-C) of the same molecule?
Its value is 1.20.

And the “supernatant concentration Dy, average” value ([3]; average of samples A-C)?
Its value is 1.59.

What about the “supernatant concentration Nd, average” value ([3]; average of samples A-C) of the same molecule?
Its value is 1.03.

And the “supernatant concentration Pr, average” value ([3]; average of samples A-C)?
The value was 0.25.

What about the “supernatant concentration Tb, average” value ([3]; average of samples A-C) of the same molecule?
Its value is 1.13.

What about the “% comp of precipitate, Dy” value ([3]; percent composition of phase) of the same molecule?
The value was 7.8%.

What about the “% comp of precipitate, Nd” value ([3]; percent composition of phase) of the same molecule?
The value was 65.4%.

What about the “% comp of precipitate, Pr” value ([3]; percent composition of phase) of the same molecule?
The value was 17.5%.

And the “% comp of precipitate, Tb” value ([3]; percent composition of phase)?
The value was 9.3%.

What about the “% comp of supernatant, Dy” value ([3]; percent composition of phase) of the same molecule?
The value was 39.7%.

What about the “% comp of supernatant, Nd” value ([3]; percent composition of phase) of the same molecule?
The value was 25.7%.

And the “% comp of supernatant, Pr” value ([3]; percent composition of phase)?
Its value is 6.3%.

What about the “% comp of supernatant, Tb” value ([3]; percent composition of phase) of the same molecule?
Its value is 28.3%.

And the “Supernatant concentration [mM] Eu” value ([4]; group A, 10% acetonitrile)?
Its value is 0.58 mM and 0.35 mM.

What about the “Supernatant concentration [mM] Yb” value ([4]; group A, 10% acetonitrile) of the same molecule?
The value was 4.55 mM and 4.42 mM.

What about the “Precipitate concentration [mM] Eu” value ([4]; group A, 10% acetonitrile) of the same molecule?
The value was 2.78 mM and 2.98 mM.

What about the “Precipitate concentration [mM] Yb” value ([4]; group A, 10% acetonitrile) of the same molecule?
The value was 0.29 mM and 0.36 mM.

What about the “Precipitate concentration [mM] Eu” value [4, 7] of the same molecule?
Its value is 2.88 mM.

And the “Precipitate concentration [mM] Yb” value [4, 7]?
The value was 0.32 mM.

And the “Supernatant concentration [mM] Eu” value [4, 7]?
The value was 0.47 mM.

What about the “Supernatant concentration [mM] Yb” value [4, 7] of the same molecule?
The value was 4.48 mM.

And the “Supernatant concentration [mM] Eu” value ([4]; group B, 20% acetonitrile)?
The value was 0.45 mM and 0.63 mM.

What about the “Supernatant concentration [mM] Yb” value ([4]; group B, 20% acetonitrile) of the same molecule?
Its value is 3.99 mM and 4.71 mM.

What about the “Precipitate concentration [mM] Eu” value ([4]; group B, 20% acetonitrile) of the same molecule?
Its value is 3.16 mM and 2.95 mM.

What about the “Precipitate concentration [mM] Yb” value ([4]; group B, 20% acetonitrile) of the same molecule?
The value was 0.38 mM and 0.41 mM.

What about the “Precipitate concentration [mM] Eu” value [4, 8] of the same molecule?
The value was 3.06 mM.

What about the “Precipitate concentration [mM] Yb” value [4, 8] of the same molecule?
Its value is 0.40 mM.

What about the “Supernatant concentration [mM] Eu” value [4, 8] of the same molecule?
The value was 0.54 mM.

And the “Supernatant concentration [mM] Yb” value [4, 8]?
The value was 4.35 mM.

And the “Supernatant concentration [mM] Eu” value ([4]; group C, 50% acetonitrile)?
The value was 1.51** mM and 0.79** mM.

What about the “Supernatant concentration [mM] Yb” value ([4]; group C, 50% acetonitrile) of the same molecule?
Its value is 6.29** mM and 5.77** mM.

What about the “Precipitate concentration [mM] Eu” value ([4]; group C, 50% acetonitrile) of the same molecule?
Its value is 3.22 mM and 3.90 mM.

What about the “Precipitate concentration [mM] Yb” value ([4]; group C, 50% acetonitrile) of the same molecule?
Its value is 0.42 mM and 0.37 mM.

What about the “Precipitate concentration [mM] Eu” value [4, 9] of the same molecule?
Its value is 3.56 mM.

And the “Precipitate concentration [mM] Yb” value [4, 9]?
Its value is 0.39 mM.

And the “Supernatant concentration [mM] Eu” value [4, 9]?
Its value is 1.15 mM.

What about the “Supernatant concentration [mM] Yb” value [4, 9] of the same molecule?
The value was 6.03 mM.
